# Test system: 876862-298-R-J1-PDC complex spheroids, viability % test/control
# Assay: Anticancer human tumor 876862-298-R-J1-PDC patient-derived endometrial carcinoma cell line growth inhibition [CLK]
# Conditions: for IC50: curve of first compound; for viability, T/C: stronger effect = lower value
# How it was run: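 Multi-cell-type spheroids combined patient-derived tumor cells with HUVEC endothelial cells and human mesenchymal stem cells. Paired agents were dosed in half-log steps down from about clinical Cmax, or from 10 microM where Cmax was unknown.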
# [1] = second compound 0.0316 µM, first compound 0.0316 µM
# [2] = second compound 0.0316 µM, first compound 0.1 µM
# [3] = second compound 0.0316 µM, first compound 0.316 µM
# [4] = second compound 0.0316 µM, first compound 1 µM
# [5] = second compound 0.0316 µM, first compound 3.16 µM
# [6] = second compound 0.0316 µM, first compound 10 µM
# [7] = second compound 0.1 µM, first compound 0.0316 µM
# [8] = second compound 0.1 µM, first compound 0.1 µM
# [9] = second compound 0.1 µM, first compound 0.316 µM
# [10] = second compound 0.1 µM, first compound 1 µM
# [11] = second compound 0.1 µM, first compound 3.16 µM
# [12] = second compound 0.1 µM, first compound 10 µM
# [13] = second compound 0.316 µM, first compound 0.0316 µM
# [14] = second compound 0.316 µM, first compound 0.1 µM
# [15] = second compound 0.316 µM, first compound 0.316 µM
# [16] = second compound 0.316 µM, first compound 1 µM
# [17] = second compound 0.316 µM, first compound 3.16 µM
# [18] = second compound 0.316 µM, first compound 10 µM
# [19] = second compound 1 µM, first compound 0.0316 µM
# [20] = second compound 1 µM, first compound 0.1 µM
# [21] = second compound 1 µM, first compound 0.316 µM
# [22] = second compound 1 µM, first compound 1 µM
# [23] = second compound 1 µM, first compound 3.16 µM
# [24] = second compound 1 µM, first compound 10 µM
# [25] = second compound 3.16 µM, first compound 0.0316 µM
# [26] = second compound 3.16 µM, first compound 0.1 µM
# [27] = second compound 3.16 µM, first compound 0.316 µM
# [28] = second compound 3.16 µM, first compound 1 µM
# [29] = second compound 3.16 µM, first compound 3.16 µM
# [30] = second compound 3.16 µM, first compound 10 µM
# [31] = second compound 10 µM, first compound 0.0316 µM
# [32] = second compound 10 µM, first compound 0.1 µM
# [33] = second compound 10 µM, first compound 0.316 µM
# [34] = second compound 10 µM, first compound 1 µM
# [35] = second compound 10 µM, first compound 3.16 µM
# [36] = second compound 10 µM, first compound 10 µM
# 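Further: spheroids exposed to drugs for 7 days before readout.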
# 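Wherever viability, T/C is given: 100% = DMSO vehicle control wells.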
smiles,measurement,setting,value
CC1(C)CCC(CN2CCN(c3ccc(C(=O)NS(=O)(=O)c4ccc(NCC5CCOCC5)c([N+](=O)[O-])c4)c(Oc4cnc5[nH]ccc5c4)c3)CC2)=C(c2ccc(Cl)cc2)C1 + CN1CCN(c2cc(C(=O)Nc3cc4cc(-c5cnn(C)c5)ccc4cn3)ccn2)CC1,IC50,second compound 0.0316 µM,5740 nM
same,IC50,second compound 0.1 µM,< 31.6 nM
same,IC50,second compound 0.316 µM,< 31.6 nM
same,IC50,second compound 1 µM,< 31.6 nM
same,IC50,second compound 3.16 µM,< 31.6 nM
same,IC50,second compound 10 µM,< 31.6 nM
same,"viability, T/C",[1],95%
same,"viability, T/C",[2],89.1%
same,"viability, T/C",[3],90.4%
same,"viability, T/C",[4],89.2%
same,"viability, T/C",[5],94.7%
same,"viability, T/C",[6],11.1%
same,"viability, T/C",[7],52.3%
same,"viability, T/C",[8],47.5%
same,"viability, T/C",[9],45.5%
same,"viability, T/C",[10],46.1%
same,"viability, T/C",[11],43.8%
same,"viability, T/C",[12],3.97%
same,"viability, T/C",[13],2.64%
same,"viability, T/C",[14],2.13%
same,"viability, T/C",[15],2.43%
same,"viability, T/C",[16],2.21%
same,"viability, T/C",[17],1.34%
same,"viability, T/C",[18],0.56%
same,"viability, T/C",[19],0.41%
same,"viability, T/C",[20],1.28%
same,"viability, T/C",[21],0.52%
same,"viability, T/C",[22],0.24%
same,"viability, T/C",[23],0.22%
same,"viability, T/C",[24],0.53%
same,"viability, T/C",[25],0.68%
same,"viability, T/C",[26],0.51%
same,"viability, T/C",[27],0.52%
same,"viability, T/C",[28],0.34%
same,"viability, T/C",[29],0.16%
same,"viability, T/C",[30],0.09%
same,"viability, T/C",[31],0.38%
same,"viability, T/C",[32],0.67%
same,"viability, T/C",[33],0.34%
same,"viability, T/C",[34],0.45%
same,"viability, T/C",[35],0.19%
same,"viability, T/C",[36],1.19%
CC1COCCN1c1cc(C2(S(C)(=N)=O)CC2)nc(-c2ccnc3[nH]ccc23)n1 (stereo not drawn) + CN1CCN(c2cc(C(=O)Nc3cc4cc(-c5cnn(C)c5)ccc4cn3)ccn2)CC1,IC50,second compound 0.0316 µM,2100 nM
same,IC50,second compound 0.1 µM,< 31.6 nM
same,IC50,second compound 0.316 µM,< 31.6 nM
same,IC50,second compound 1 µM,< 31.6 nM
same,IC50,second compound 3.16 µM,< 31.6 nM
same,IC50,second compound 10 µM,< 31.6 nM
same,"viability, T/C",[1],89.1%
same,"viability, T/C",[2],87.5%
same,"viability, T/C",[3],76.5%
same,"viability, T/C",[4],62.1%
same,"viability, T/C",[5],43.6%
same,"viability, T/C",[6],17.9%
same,"viability, T/C",[7],45.1%
same,"viability, T/C",[8],51.9%
same,"viability, T/C",[9],38.9%
same,"viability, T/C",[10],33.6%
same,"viability, T/C",[11],18.4%
same,"viability, T/C",[12],7.47%
same,"viability, T/C",[13],2.43%
same,"viability, T/C",[14],2.03%
same,"viability, T/C",[15],2.19%
same,"viability, T/C",[16],2.32%
same,"viability, T/C",[17],2.12%
same,"viability, T/C",[18],1.33%
same,"viability, T/C",[19],0.64%
same,"viability, T/C",[20],0.83%
same,"viability, T/C",[21],0.8%
same,"viability, T/C",[22],0.51%
same,"viability, T/C",[23],0.47%
same,"viability, T/C",[24],0.27%
same,"viability, T/C",[25],0.98%
same,"viability, T/C",[26],1.82%
same,"viability, T/C",[27],0.92%
same,"viability, T/C",[28],0.81%
same,"viability, T/C",[29],0.61%
same,"viability, T/C",[30],0.4%
same,"viability, T/C",[31],0.94%
same,"viability, T/C",[32],0.66%
same,"viability, T/C",[33],1.4%
same,"viability, T/C",[34],0.63%
same,"viability, T/C",[35],0.59%
same,"viability, T/C",[36],0.74%
NC(=O)C(=Cn1cnc(-c2cc(C(F)(F)F)cc(C(F)(F)F)c2)n1)c1cncnc1 + CN1CCN(c2cc(C(=O)Nc3cc4cc(-c5cnn(C)c5)ccc4cn3)ccn2)CC1,IC50,second compound 0.0316 µM,29.4 nM
same,IC50,second compound 0.1 µM,< 9.49 nM
same,IC50,second compound 0.316 µM,< 9.49 nM
same,IC50,second compound 1 µM,< 9.49 nM
same,IC50,second compound 3.16 µM,< 9.49 nM
same,IC50,second compound 10 µM,< 9.49 nM
same,"viability, T/C","second compound 0.0316 µM, first compound 0.00949 µM",67.5%
same,"viability, T/C","second compound 0.0316 µM, first compound 0.03 µM",49.3%
same,"viability, T/C","second compound 0.0316 µM, first compound 0.0949 µM",33%
same,"viability, T/C","second compound 0.0316 µM, first compound 0.3 µM",24.1%
same,"viability, T/C","second compound 0.0316 µM, first compound 0.949 µM",11.3%
same,"viability, T/C","second compound 0.0316 µM, first compound 3 µM",2.88%
same,"viability, T/C","second compound 0.1 µM, first compound 0.00949 µM",38.5%
same,"viability, T/C","second compound 0.1 µM, first compound 0.03 µM",30.8%
same,"viability, T/C","second compound 0.1 µM, first compound 0.0949 µM",21.1%
same,"viability, T/C","second compound 0.1 µM, first compound 0.3 µM",4.49%
same,"viability, T/C","second compound 0.1 µM, first compound 0.949 µM",0.38%
same,"viability, T/C","second compound 0.1 µM, first compound 3 µM",0.99%
same,"viability, T/C","second compound 0.316 µM, first compound 0.00949 µM",1.38%
same,"viability, T/C","second compound 0.316 µM, first compound 0.03 µM",0.32%
same,"viability, T/C","second compound 0.316 µM, first compound 0.0949 µM",0.86%
same,"viability, T/C","second compound 0.316 µM, first compound 0.3 µM",0.98%
same,"viability, T/C","second compound 0.316 µM, first compound 0.949 µM",0.83%
same,"viability, T/C","second compound 0.316 µM, first compound 3 µM",1.69%
same,"viability, T/C","second compound 1 µM, first compound 0.00949 µM",0.33%
same,"viability, T/C","second compound 1 µM, first compound 0.03 µM",0.27%
same,"viability, T/C","second compound 1 µM, first compound 0.0949 µM",0.22%
same,"viability, T/C","second compound 1 µM, first compound 0.3 µM",0.36%
same,"viability, T/C","second compound 1 µM, first compound 0.949 µM",0.45%
same,"viability, T/C","second compound 1 µM, first compound 3 µM",1.17%
same,"viability, T/C","second compound 3.16 µM, first compound 0.00949 µM",0.3%
same,"viability, T/C","second compound 3.16 µM, first compound 0.03 µM",1.41%
same,"viability, T/C","second compound 3.16 µM, first compound 0.0949 µM",0.93%
same,"viability, T/C","second compound 3.16 µM, first compound 0.3 µM",0.82%
same,"viability, T/C","second compound 3.16 µM, first compound 0.949 µM",1.14%
same,"viability, T/C","second compound 3.16 µM, first compound 3 µM",1.63%
same,"viability, T/C","second compound 10 µM, first compound 0.00949 µM",1.33%
same,"viability, T/C","second compound 10 µM, first compound 0.03 µM",1.7%
same,"viability, T/C","second compound 10 µM, first compound 0.0949 µM",1.02%
same,"viability, T/C","second compound 10 µM, first compound 0.3 µM",1.05%
same,"viability, T/C","second compound 10 µM, first compound 0.949 µM",1.22%
same,"viability, T/C","second compound 10 µM, first compound 3 µM",1.15%
Nc1ccccc1NC(=O)c1ccc(CNC(=O)OCc2cccnc2)cc1 + CN1CCN(c2cc(C(=O)Nc3cc4cc(-c5cnn(C)c5)ccc4cn3)ccn2)CC1,IC50,second compound 0.0316 µM,4010 nM
same,IC50,second compound 0.1 µM,< 31.6 nM
same,IC50,second compound 0.316 µM,< 31.6 nM
same,IC50,second compound 1 µM,< 31.6 nM
same,IC50,second compound 3.16 µM,< 31.6 nM
same,IC50,second compound 10 µM,< 31.6 nM
same,"viability, T/C",[1],86.8%
same,"viability, T/C",[2],95.2%
same,"viability, T/C",[3],81.9%
same,"viability, T/C",[4],83.9%
same,"viability, T/C",[5],54.9%
same,"viability, T/C",[6],30.6%
same,"viability, T/C",[7],48.5%
same,"viability, T/C",[8],48.5%
same,"viability, T/C",[9],40.9%
same,"viability, T/C",[10],34.1%
same,"viability, T/C",[11],15.7%
same,"viability, T/C",[12],3.34%
same,"viability, T/C",[13],2.84%
same,"viability, T/C",[14],1.59%
same,"viability, T/C",[15],1.03%
same,"viability, T/C",[16],0.37%
same,"viability, T/C",[17],0.85%
same,"viability, T/C",[18],0.12%
same,"viability, T/C",[19],0.89%
same,"viability, T/C",[20],1.78%
same,"viability, T/C",[21],1.05%
same,"viability, T/C",[22],0.95%
same,"viability, T/C",[23],1.68%
same,"viability, T/C",[24],1.65%
same,"viability, T/C",[25],1.22%
same,"viability, T/C",[26],1.55%
same,"viability, T/C",[27],1.06%
same,"viability, T/C",[28],1.89%
same,"viability, T/C",[29],2.98%
same,"viability, T/C",[30],3.09%
same,"viability, T/C",[31],0.79%
same,"viability, T/C",[32],1.03%
same,"viability, T/C",[33],2.17%
same,"viability, T/C",[34],1.89%
same,"viability, T/C",[35],3.24%
same,"viability, T/C",[36],1.78%
